Experimental data reported in patent US20260202397A1, “POTENCY ASSAY FOR PHARMACEUTICAL PRODUCTS” (REPAIRON MUSCLE UG, priority 2022, published 2026).
In brackets after ≈: the same amount, converted by molar mass. Entries after “also recorded” stand apart in the source; their conditions may differ.

Legend:
[1] = Pirfenidone IC50 in vitro
[2] = system: Engineered connective tissues (ECT); assay: ECT contraction by pole deflection analysis (reference ECT +/- TGF-β1); assay type: cell-based, human; conditions: 5 ng/ml TGF-β1 applied at day 4, day 10 of the drug effect testing phase (absolute day 13), 6 technical replicates
Description: The general experimental procedure was identical for all used cells, including primary fibroblasts and iPSC-StC. Supporting information in view of the ECT model, in particular its generation, may also be found in Santos et al. (2021, Fibroblast Derived Human Engineered Connective Tissue for Screening Applications. J. Vis. Exp. e62700, doi: 10.3791/62700, PMID: 34487119), Santos et al. (2022, Using different geometries to modulate the cardiac fibroblast phenotype and the biomechanical properties of engineered connective tissues. Biomater Adv. 139:213041, PMID: 35909053), and EP20188364. In particular, acid solubilized, collagen type 1 was mixed 1:1 with 2× DMEM containing 20% fetal calf serum and antibiotics. […]
Pole deflection measurement and platforms are well-established in the art, cf. e.g. WO2017/207431 (also granted as DE 10 2016 110 328 B3). […] Pole deflection as a function of ECT compaction was calculated as follows: 100×(pole distanceday 0-pole distanceday x)/pole distanceday 0.
Reference ECT were analyzed, which were treated with a drug solvent in absence or presence of TGF-β1, with TGF-β1 application serving as additional reference with respect to pro-fibrotic drug characterization. […]

[3] = system: Engineered connective tissues (ECT); assay: ECT stiffness (Young's modulus) by ultimate tensile testing; assay type: cell-based, human; conditions: 5 ng/ml TGF-β1, day 10 of the drug effect testing phase (absolute day 13), 8 replicates
Description: Reference ECT were generated and treated similar as described herein in Example 1. In contrast to the pole deflection analysis disclosed in Example 1 herein, 8 ECT were harvested for the ultimate tensile testing at the moment when the plateau was reached and before a drug solvent was applied with or without TGF-β1. Residual ECT were cultured for further 10 days. Then, macroscopic images were taken from the ECT on the poles to estimate their cross-sectional areas based on the observed ECT thicknesses. Ultimate tensile testing was performed with a dynamic mechanical analyzer (DMA). Therefore, ECT were loaded onto two hooks clamped to a DMA in a 37° C. tempered organ bath filled with PBS. Then, uniaxial stretch at a constant linear rate of approximately 1% (0.03 mm/s) was applied until the ECT ruptured. The recorded force traces were converted into stress-strain curves. The Young's modulus representing the stiffness of the ECT was analyzed by determining the slope of the linear part of curve within the elastic region (FIG. 3A). All measurements were performed in 8 replicates. […]

[4] = system: BioEngineered Neuronal Organoids (BENOs); assay: Multi-electrode array (MEA) recording of BENO network activity; assay type: cell-based, human; conditions: for Burst Frequency (Hz) / Interspike Interval in a burst / Network Burst (NB) Frequency / Number of Active Electrodes / Weighted Mean Firing Rate (Hz) / Burst Frequency (Hz), effect vs reference BENO / Interspike Interval in a burst (s), effect vs reference BENO / Network Burst (NB) Frequency, effect vs reference BENO / Number of Active Electrodes, effect vs reference BENO / Weighted Mean Firing Rate (Hz), effect vs reference BENO: CNQX 15 μM; for Burst frequency, change in words / Weighted mean firing rate, change in words: text and figure legend
Description: BioEngineered Neuronal Organoids (BENOs) were generated in line with the BENO generation protocol provided in Zafeiriou et al. (Nature Communications, 2020, 11:3791, https://doi.org/10.1038/s41467-020-17521-w).
The method used for this illustrative example was a multi-electrode array (MEA) recording. In particular, six-well plates with 64 platinum microelectrodes arrays per well (0.04 MQ/microelectrode, 30 μm microelectrode diameter, 200 μm spacing) were coated with Matrigel™ 1:120 diluted in PBS for 1 h at room temperature prior seeding. One or two slices (thickness: 300 μm) were placed into a MEA well and immobilized by a concentrically coiled tungsten ring. 10-15 min recordings/2 h were performed every other day for up to 60 days using a Maestro pro MEA system (Axion Biosystems). Data recordings were automatically scheduled with the Axion Software (AxIS Navigator) using the manufacturer's Spontaneous Neural Configuration. Data analysis was performed using the manufacturer's standalone tools, Neural Metric Tool, and AxIS Metric Plotting Tool (Axion Biosystems). […] Spike bursts were identified using an ISI threshold requiring a minimum number of five spikes with a maximum ISI of 100 ms. Network Bursts (NB) were identified by an envelope algorithm with a threshold of 1.25, minimum IBI interval of 100 ms, 75% burst inclusion with a minimum of 10% active electrodes.

[5] = BENO day 50 to day 60, 10 min treatment, PIC 58 μM, 4 tissues
[6] = BENO day 60, 10 min treatment, PIC 58 μM, threshold 2× SD
[7] = BENO day 60, treated vs reference
[8] = BENO day 60, treated vs reference, listed as Picrotoxin

## Cc1ccc(=O)n(-c2ccccc2)c1 [Pirfenidone]
[1]
  IC50: 430 µg/mL (≈ 2320 µM)

## TGF-B1: pro-fibrotic cytokine applied at 5 ng/ml to reference ECT
[2]
  Contraction (%): 39.4%
[3]
  Young's modulus (kPa): 76.4 kPa

## C=C(C)[C@@H]1[C@H]2OC(=O)[C@@H]1[C@]1(O)C[C@H]3OC34C(=O)O[C@H]2[C@@]41C.CC(C)(O)[C@@H]1[C@H]2OC(=O)[C@@H]1[C@]1(O)C[C@H]3OC34C(=O)O[C@H]2[C@@]41C (stereo partly shown) [PIC, Picrotoxin]
[4]; [5]
  Burst Frequency (Hz): 0.2 Hz
  Interspike Interval in a burst: 0.02 s
  Network Burst (NB) Frequency: 0.09
  Number of Active Electrodes: 23
  Weighted Mean Firing Rate (Hz): 4.7 Hz
  Interspike Interval in a NB: 0.002 s
  NB Duration: 1.4 ± 0.4 s
  NB percentage: 43 ± 42
[4]; BENO day 60
  Spontaneous activity, change in words: increased
[4]; [6]
  Burst Frequency (Hz), effect vs reference BENO: ↑ (>2SD increase)
  Interspike Interval in a burst (s), effect vs reference BENO: ↔ (<2SD change)
  Network Burst (NB) Frequency, effect vs reference BENO: ↑ (>2SD increase)
  Number of Active Electrodes, effect vs reference BENO: ↔ (<2SD change)
  Weighted Mean Firing Rate (Hz), effect vs reference BENO: ↑ (>2SD increase)
  Interspike Interval in a NB (s), effect vs reference BENO: ↔ (<2SD change)
  NB Duration (s), effect vs reference BENO: ↑ (>2SD increase)
  NB percentage, effect vs reference BENO: ↔ (<2SD change)
[4]; [7]
  Network burst duration (network burst complexity), change in words: decreased
  Network burst frequency, change in words: increased
  Burst frequency, change in words: increase
  Weighted mean firing rate, change in words: increase
[4]; [8]
  Burst frequency, change in words: increases
  Weighted mean firing rate, change in words: increased

## N#Cc1cc2[nH]c(=O)c(=O)[nH]c2cc1[N+](=O)[O-] [CNQX, Cyanquixalin]
[4]; [5]
  Burst Frequency (Hz): 0.02 Hz
  Interspike Interval in a burst: 0.03 s
  Network Burst (NB) Frequency: 0
  Number of Active Electrodes: 2
  Weighted Mean Firing Rate (Hz): 0.6 Hz
[4]; [6]
  Burst Frequency (Hz), effect vs reference BENO: ↔ (<2SD change)
  Interspike Interval in a burst (s), effect vs reference BENO: ↑ (>2SD increase)
  Network Burst (NB) Frequency, effect vs reference BENO: ↓ (>2SD decrease)
  Number of Active Electrodes, effect vs reference BENO: ↓ (>2SD decrease)
  Weighted Mean Firing Rate (Hz), effect vs reference BENO: ↓ (>2SD decrease)
[4]; BENO day 60, after treatment
  Interspike interval in a burst, change in words: higher
[4]; [7]
  Network burst frequency, change in words: decrease
  Burst frequency, change in words: reduced to the predetermined threshold of 2× SD, though not exceeding it; also recorded: decrease; also recorded: reduced
  Weighted mean firing rate, change in words: decrease; also recorded: reduced
